Measurements reported in PubChem BioAssay AID2060487 (Molecular Pharmacology Branch, DTP, NCI, 2025).

System: 997537-175-T-J1-PDC complex spheroid viability
Experiment: Anticancer human tumor 997537-175-T-J1-PDC patient-derived colon adenocarcinoma cell line growth inhibition [GQUAD]
Conditions: for IC50: curve of first compound; for viability, T/C: stronger effect = lower value
Method in brief: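 Tumor cells were grown as complex spheroids with HUVEC endothelial cells and mesenchymal stem cells as stroma. G-quadruplex stabilizers were combined with targeted agents over half-log dilutions from near the clinical Cmax, or from 10 microM.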

[1] = second compound 0.0316 µM, first compound 0.0316 µM
[2] = second compound 0.0316 µM, first compound 0.316 µM
[3] = second compound 0.1 µM, first compound 0.0316 µM
[4] = second compound 0.1 µM, first compound 0.316 µM
[5] = second compound 0.316 µM, first compound 0.0316 µM
[6] = second compound 0.316 µM, first compound 0.316 µM
[7] = second compound 1 µM, first compound 0.0316 µM
[8] = second compound 1 µM, first compound 0.316 µM
[9] = second compound 3.16 µM, first compound 0.0316 µM
[10] = second compound 3.16 µM, first compound 0.316 µM
[11] = second compound 10 µM, first compound 0.0316 µM
[12] = second compound 10 µM, first compound 0.316 µM
[13] = second compound 0.0316 µM, first compound 0.1 µM
[14] = second compound 0.0316 µM, first compound 1 µM
[15] = second compound 0.0316 µM, first compound 3.16 µM
[16] = second compound 0.0316 µM, first compound 10 µM
[17] = second compound 0.1 µM, first compound 0.1 µM
[18] = second compound 0.1 µM, first compound 1 µM
[19] = second compound 0.1 µM, first compound 3.16 µM
[20] = second compound 0.1 µM, first compound 10 µM
[21] = second compound 0.316 µM, first compound 0.1 µM
[22] = second compound 0.316 µM, first compound 1 µM
[23] = second compound 0.316 µM, first compound 3.16 µM
[24] = second compound 0.316 µM, first compound 10 µM
[25] = second compound 1 µM, first compound 0.1 µM
[26] = second compound 1 µM, first compound 1 µM
[27] = second compound 1 µM, first compound 3.16 µM
[28] = second compound 1 µM, first compound 10 µM
[29] = second compound 3.16 µM, first compound 0.1 µM
[30] = second compound 3.16 µM, first compound 1 µM
[31] = second compound 3.16 µM, first compound 3.16 µM
[32] = second compound 3.16 µM, first compound 10 µM
[33] = second compound 10 µM, first compound 0.1 µM
[34] = second compound 10 µM, first compound 1 µM
[35] = second compound 10 µM, first compound 3.16 µM
[36] = second compound 10 µM, first compound 10 µM
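Further: spheroids exposed to the agents for 7 days.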
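Wherever viability, T/C is given: 100% = DMSO vehicle control viability.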

## Cc1[nH]c2ccccc2c1CCNCc1ccc(/C=C/C(=O)NO)cc1 + Cc1[nH]c2ccc(F)cc2c1-c1nc2c3cccnc3c3ncccc3c2[nH]1
Second compound 0.0316 µM
  IC50: > 0.316 µM
Second compound 0.1 µM
  IC50: > 0.316 µM
Second compound 0.316 µM
  IC50: > 0.316 µM
Second compound 1 µM
  IC50: > 0.316 µM
Second compound 3.16 µM
  IC50: > 0.316 µM
Second compound 10 µM
  IC50: > 0.316 µM
Second compound 0.0316 µM, first compound 0.000999 µM
  viability, T/C: 100%
Second compound 0.0316 µM, first compound 0.00316 µM
  viability, T/C: 103%
Second compound 0.0316 µM, first compound 0.00999 µM
  viability, T/C: 100%
[1]
  viability, T/C: 106%
Second compound 0.0316 µM, first compound 0.0999 µM
  viability, T/C: 88.8%
[2]
  viability, T/C: 93.2%
Second compound 0.1 µM, first compound 0.000999 µM
  viability, T/C: 89.3%
Second compound 0.1 µM, first compound 0.00316 µM
  viability, T/C: 108%
Second compound 0.1 µM, first compound 0.00999 µM
  viability, T/C: 92.8%
[3]
  viability, T/C: 104%
Second compound 0.1 µM, first compound 0.0999 µM
  viability, T/C: 93.4%
[4]
  viability, T/C: 95.5%
Second compound 0.316 µM, first compound 0.000999 µM
  viability, T/C: 92.1%
Second compound 0.316 µM, first compound 0.00316 µM
  viability, T/C: 111%
Second compound 0.316 µM, first compound 0.00999 µM
  viability, T/C: 92.4%
[5]
  viability, T/C: 91%
Second compound 0.316 µM, first compound 0.0999 µM
  viability, T/C: 105%
[6]
  viability, T/C: 97.1%
Second compound 1 µM, first compound 0.000999 µM
  viability, T/C: 98.4%
Second compound 1 µM, first compound 0.00316 µM
  viability, T/C: 95.1%
Second compound 1 µM, first compound 0.00999 µM
  viability, T/C: 101%
[7]
  viability, T/C: 90.6%
Second compound 1 µM, first compound 0.0999 µM
  viability, T/C: 90.5%
[8]
  viability, T/C: 84.8%
Second compound 3.16 µM, first compound 0.000999 µM
  viability, T/C: 93.2%
Second compound 3.16 µM, first compound 0.00316 µM
  viability, T/C: 84%
Second compound 3.16 µM, first compound 0.00999 µM
  viability, T/C: 82.1%
[9]
  viability, T/C: 96.3%
Second compound 3.16 µM, first compound 0.0999 µM
  viability, T/C: 77.6%
[10]
  viability, T/C: 80.7%
Second compound 10 µM, first compound 0.000999 µM
  viability, T/C: 83.2%
Second compound 10 µM, first compound 0.00316 µM
  viability, T/C: 88.7%
Second compound 10 µM, first compound 0.00999 µM
  viability, T/C: 73.2%
[11]
  viability, T/C: 78.6%
Second compound 10 µM, first compound 0.0999 µM
  viability, T/C: 84.6%
[12]
  viability, T/C: 69.5%

## Cc1cccc(N(C)C(=O)C2C(O)CCN2c2nc(C)cc(C(F)(F)F)c2C#N)c1 (stereo unspecified) + CN(C)c1ccc(Nc2c3ccc(NC(=O)CCN4CCCC4)cc3nc3cc(NC(=O)CCN4CCCC4)ccc23)cc1
Second compound 0.0316 µM
  IC50: > 10 µM
Second compound 0.1 µM
  IC50: > 10 µM
Second compound 0.316 µM
  IC50: > 10 µM
Second compound 1 µM
  IC50: > 10 µM
Second compound 3.16 µM
  IC50: > 10 µM
Second compound 10 µM
  IC50: > 10 µM
[1]
  viability, T/C: 97.8%
[13]
  viability, T/C: 101%
[2]
  viability, T/C: 101%
[14]
  viability, T/C: 80.2%
[15]
  viability, T/C: 85.4%
[16]
  viability, T/C: 105%
[3]
  viability, T/C: 91.5%
[17]
  viability, T/C: 85.9%
[4]
  viability, T/C: 87.7%
[18]
  viability, T/C: 70.3%
[19]
  viability, T/C: 103%
[20]
  viability, T/C: 89.7%
[5]
  viability, T/C: 83.8%
[21]
  viability, T/C: 85.7%
[6]
  viability, T/C: 81.4%
[22]
  viability, T/C: 77.7%
[23]
  viability, T/C: 89.2%
[24]
  viability, T/C: 104%
[7]
  viability, T/C: 84.9%
[25]
  viability, T/C: 61.3%
[8]
  viability, T/C: 83.2%
[26]
  viability, T/C: 81.2%
[27]
  viability, T/C: 104%
[28]
  viability, T/C: 85.3%
[9]
  viability, T/C: 61.4%
[29]
  viability, T/C: 91.3%
[10]
  viability, T/C: 77%
[30]
  viability, T/C: 93.8%
[31]
  viability, T/C: 103%
[32]
  viability, T/C: 103%
[11]
  viability, T/C: 72.5%
[33]
  viability, T/C: 83.9%
[12]
  viability, T/C: 106%
[34]
  viability, T/C: 88.9%
[35]
  viability, T/C: 106%
[36]
  viability, T/C: 103%

## C=CCn1c(=O)c2cnc(Nc3ccc(N4CCN(C)CC4)cc3)nc2n1-c1cccc(C(C)(C)O)n1 + Cc1[nH]c2ccc(F)cc2c1-c1nc2c3cccnc3c3ncccc3c2[nH]1
Second compound 0.0316 µM
  IC50: 6.61 µM
Second compound 0.1 µM
  IC50: 6.38 µM
Second compound 0.316 µM
  IC50: 6.16 µM
Second compound 1 µM
  IC50: 5.5 µM
Second compound 3.16 µM
  IC50: 2.24 µM
Second compound 10 µM
  IC50: 2.09 µM
[1]
  viability, T/C: 102%
[13]
  viability, T/C: 68.9%
[2]
  viability, T/C: 82.3%
[14]
  viability, T/C: 83.6%
[15]
  viability, T/C: 90.9%
[16]
  viability, T/C: 30%
[3]
  viability, T/C: 105%
[17]
  viability, T/C: 97.1%
[4]
  viability, T/C: 89.8%
[18]
  viability, T/C: 89.2%
[19]
  viability, T/C: 93.6%
[20]
  viability, T/C: 22.2%
[5]
  viability, T/C: 86.8%
[21]
  viability, T/C: 98.8%
[6]
  viability, T/C: 79.3%
[22]
  viability, T/C: 86.4%
[23]
  viability, T/C: 84.4%
[24]
  viability, T/C: 25%
[7]
  viability, T/C: 86.6%
[25]
  viability, T/C: 102%
[8]
  viability, T/C: 86.4%
[26]
  viability, T/C: 78.3%
[27]
  viability, T/C: 71.2%
[28]
  viability, T/C: 30.1%
[9]
  viability, T/C: 92%
[29]
  viability, T/C: 87.3%
[10]
  viability, T/C: 72.4%
[30]
  viability, T/C: 56.5%
[31]
  viability, T/C: 55%
[32]
  viability, T/C: 6.52%
[11]
  viability, T/C: 91.9%
[33]
  viability, T/C: 65.1%
[12]
  viability, T/C: 74.9%
[34]
  viability, T/C: 66.5%
[35]
  viability, T/C: 42.1%
[36]
  viability, T/C: 11.5%
